Molecular target: T1, AHR (UniProt P35869)
T1 construct: IC50
T1 sequence (P35869 1-848): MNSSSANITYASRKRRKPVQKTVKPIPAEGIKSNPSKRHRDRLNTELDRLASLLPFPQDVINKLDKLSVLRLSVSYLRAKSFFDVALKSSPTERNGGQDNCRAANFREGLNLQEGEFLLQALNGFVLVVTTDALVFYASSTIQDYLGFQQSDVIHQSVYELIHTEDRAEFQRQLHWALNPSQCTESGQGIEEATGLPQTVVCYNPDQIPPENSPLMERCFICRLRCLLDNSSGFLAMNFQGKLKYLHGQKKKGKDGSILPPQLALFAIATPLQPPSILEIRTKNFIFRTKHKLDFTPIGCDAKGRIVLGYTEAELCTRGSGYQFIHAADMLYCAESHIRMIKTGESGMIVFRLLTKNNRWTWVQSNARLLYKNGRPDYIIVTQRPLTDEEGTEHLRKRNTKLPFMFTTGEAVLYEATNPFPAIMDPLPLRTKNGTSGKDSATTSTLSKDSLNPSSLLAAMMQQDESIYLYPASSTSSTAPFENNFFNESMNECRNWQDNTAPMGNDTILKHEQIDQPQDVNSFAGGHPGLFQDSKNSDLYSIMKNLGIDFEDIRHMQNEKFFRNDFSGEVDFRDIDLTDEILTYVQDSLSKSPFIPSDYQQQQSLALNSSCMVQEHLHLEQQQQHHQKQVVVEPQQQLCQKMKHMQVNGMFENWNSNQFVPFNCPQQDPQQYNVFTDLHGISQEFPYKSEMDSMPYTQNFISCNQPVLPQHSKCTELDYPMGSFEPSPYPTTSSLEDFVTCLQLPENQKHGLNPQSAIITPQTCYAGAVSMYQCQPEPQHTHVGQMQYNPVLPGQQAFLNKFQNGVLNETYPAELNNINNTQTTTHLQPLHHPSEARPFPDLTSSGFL
Test: DRE-Luciferase Reporter Assay (Alternate Method) (Example 1B)
Assay type: cell-based, murine or human
Conditions: cell line and AHR activating ligand not specified

IC50 [nM] | Compound
> 1500 | CC(C)c1cnn2c(N[C@H]3CCc4[nH]c5c(F)cccc5c4C3)cc(-c3cncc(F)c3)nc12 [I-212]
< 500 | Cc1cnn2c(NCCc3ccc(O)cc3)cc(-c3cncc(F)c3)nc12 [I-213, 4-[2-[[5-(5-fluoro-3-pyridyl)-3-methyl-pyrazolo[1,5-a]pyrimidin-7-yl]amino]ethyl]phenol]
> 1500 | Cc1cnn2c(NCCc3c[nH]c4ccc(O)cc34)cc(-c3cncc(F)c3)nc12 [I-215, 3-[2-[[5-(5-Fluoro-3-pyridyl)-3-methyl-pyrazolo[1,5-a]pyrimidin-7-yl]amino]ethyl]-1H-indol-5-ol]
500 to 1000 | Cc1cnn2c(N[C@@H]3CCc4[nH]c5c(F)cccc5c4C3)cc(-c3cncc(F)c3)nc12 [I-216a, (3R)-8-Fluoro-N-[5-(5-fluoro-3-pyridyl)-3-methyl-pyrazolo[1,5-a]pyrimidin-7-yl]-2,3,4,9-tetrahydro-1H-carbazol-3-amine]
> 1500 | Cc1cnn2c(N[C@H]3CCc4[nH]c5c(F)cccc5c4C3)cc(-c3cncc(F)c3)nc12 [I-216b]
< 500 | Cc1cnn2c(NCCc3ccccc3)cc(-c3cncc(F)c3)nc12 [I-218, 5-(5-fluoro-3-pyridyl)-3-methyl-N-(2-phenylethyl)pyrazolo[1,5-a]pyrimidin-7-amine]
< 500 | CC(C)c1cnn2c(N[C@H]3Cc4ccc(O)cc4C3)cc(-c3cncc(F)c3)nc12 [I-220, (2S)-2-[[5-(5-fluoro-3-pyridyl)-3-isopropyl-pyrazolo[1,5-a]pyrimidin-7-yl]amino]indan-5-ol]
> 1500 | CC(C)c1cnn2c(NC3CCc4[nH]c5c(F)cccc5c4C3)cc(-c3cncc(F)c3)nc12 (stereo not shown) [I-221]
< 500 | Cc1[nH]c2c(F)cccc2c1CCNc1cc(-c2cncc(F)c2)nc2c(C(=O)N3CCOCC3)cnn12 [I-225, [7-[2-(7-Fluoro-2-methyl-1H-indol-3-yl)ethylamino]-5-(5-fluoro-3-pyridyl)pyrazolo[1,5-a]pyrimidin-3-yl]-morpholino-methanone]
< 500 | Fc1cncc(-c2cc(NCCc3c[nH]c4ccccc34)n3ncc(C4CCCO4)c3n2)c1 (stereo not shown) [I-226, 5-(5-Fluoro-3-pyridyl)-N-[2-(1H-indol-3-yl)ethyl]-3-tetrahydrofuran-2-yl-pyrazolo[1,5-a]pyrimidin-7-amine]
< 500 | CC(C)c1cnn2c(NCCc3c[nH]c4ccccc34)cc(-c3cccc4c3OCO4)nc12 [I-227, 5-(1,3-Benzodioxol-4-yl)-N-[2-(1H-indol-3-yl)ethyl]-3-isopropyl-pyrazolo[1,5-a]pyrimidin-7-amine]
> 1500 | CC(C)c1cnn2c(NC3CCc4[nH]c5ccccc5c4C3)cc(-c3cccc4c3OCO4)nc12 (stereo not shown) [I-228]
> 1500 | CC(C)c1cnn2c(N[C@@H]3CCc4[nH]c5ccccc5c4C3)cc(-c3cncnc3)nc12 [I-229, (3R)—N-(3-Isopropyl-5-pyrimidin-5-yl-pyrazolo[1,5-a]pyrimidin-7-yl)-2,3,4,9-tetrahydro-1H-carbazol-3-amine]
< 500 | C=Cc1cnn2c(NCCc3c[nH]c4ccccc34)cc(-c3cncc(F)c3)nc12 [I-230, 5-(5-Fluoro-3-pyridyl)-N-[2-(1H-indol-3-yl)ethyl]-3-vinyl-pyrazolo[1,5-a]pyrimidin-7-amine]
> 1500 | NC(=O)c1cnn2c(NC3CCc4[nH]c5c(F)cccc5c4C3)cc(-c3cncc(F)c3)nc12 (stereo not shown) [I-231]
< 500 | Cc1cnn2c(N[C@@H]3Cc4ccc(O)cc4C3)cc(-c3cncc(F)c3)nc12 [I-232, (2R)-2-[[5-(5-Fluoro-3-pyridyl)-3-methyl-pyrazolo[1,5-a]pyrimidin-7-yl]amino]indan-5-ol]
500 to 1000 | CC(C)n1cnc2c(NCCc3ccc(O)cc3)nc(-c3csc4ccccc34)nc21 [I-233]
500 to 1000 | CC(C)c1cnn2c(N[C@@H]3Cc4ccc(O)cc4C3)cc(-c3cncc(F)c3)nc12 [I-234, (2R)-2-[[5-(5-Fluoro-3-pyridyl)-3-isopropyl-pyrazolo[1,5-a]pyrimidin-7-yl]amino]indan-5-ol]
> 1500 | COc1cncc(-c2cc(NC3CCc4[nH]c5ccccc5c4C3)n3ncc(C(C)C)c3n2)c1 (stereo not shown) [I-236]
< 500 | CCc1cnn2c(NCCc3c[nH]c4ccccc34)cc(-c3cncc(F)c3)nc12 [I-237, 3-Ethyl-5-(5-fluoro-3-pyridyl)-N-[2-(1H-indol-3-yl)ethyl]pyrazolo[1,5-a]pyrimidin-7-amine]

IC50 [nM] | Compound
> 1500 | CC(C)c1cnn2c(NC3CCc4[nH]c5ccccc5c4C3)cc(-c3cccc(F)c3)nc12 (stereo not shown) [I-238]
> 1500 | CC(C)c1cnn2c(NC3CCc4[nH]c5ccccc5c4C3)cc(-c3ccc4c(c3)OCO4)nc12 (stereo not shown) [I-239]
> 1500 | COc1ccccc1-c1cc(NCCc2c[nH]c3ccccc23)n2ncc(C(C)C)c2n1 [I-240, N-[2-(1H-indol-3-yl)ethyl]-3-isopropyl-5-(2-methoxyphenyl)pyrazolo[1,5-a]pyrimidin-7-amine]
< 500 | CC(C)c1cnn2c(NCCc3c[nH]c4ccccc34)cc(-c3cncnc3)nc12 [I-241, N-[2-(1H-Indol-3-yl)ethyl]-3-isopropyl-5-pyrimidin-5-yl-pyrazolo[1,5-a]pyrimidin-7-amine]
< 500 | CC(C)c1cnn2c(NCCc3c[nH]c4ccccc34)cc(-c3cccc(F)c3)nc12 [I-242, 5-(3-fluorophenyl)-N-[2-(1H-indol-3-yl)ethyl]-3-isopropyl-pyrazolo[1,5-a]pyrimidin-7-amine]
> 1500 | Cc1cnn2c(N[C@@H]3CCc4[nH]c5c(F)cc(F)cc5c4C3)cc(-c3cncc(F)c3)nc12 [I-243a]
> 1500 | Cc1cnn2c(N[C@H]3CCc4[nH]c5c(F)cc(F)cc5c4C3)cc(-c3cncc(F)c3)nc12 [I-243b]
> 1500 | CC(C)c1cnn2c(N[C@@H]3CCc4[nH]c5ccccc5c4C3)cc(-c3cccnc3)nc12 [I-245, (3R)—N-[3-Isopropyl-5-(3-pyridyl)pyrazolo[1,5-a]pyrimidin-7-yl]-2,3,4,9-tetrahydro-1H-carbazol-3-amine]
1000 to 1500 | CC(C)c1cnn2c(NCCc3c[nH]c4ccccc34)cc(-c3ccc4c(c3)OCO4)nc12 [I-246, 5-(1,3-Benzodioxol-5-yl)-N-[2-(1H-indol-3-yl)ethyl]-3-isopropyl-pyrazolo[1,5-a]pyrimidin-7-amine]
< 500 | CC(C)c1cnn2c(N[C@H]3CCc4[nH]c(-c5ccccc5)cc4C3)nc(-c3cncc(F)c3)nc12 [I-249a, 2-(5-Fluoro-3-pyridyl)-8-isopropyl-N-[(5S)-2-phenyl-4,5,6,7-tetrahydro-1H-indol-5-yl]pyrazolo[1,5-a][1,3,5]triazin-4-amine]
< 500 | CC(C)c1cnn2c(N[C@@H]3CCc4[nH]c(-c5ccccc5)cc4C3)nc(-c3cncc(F)c3)nc12 [I-249b, 2-(5-Fluoro-3-pyridyl)-8-isopropyl-N-[(5R)-2-phenyl-4,5,6,7-tetrahydro-1H-indol-5-yl]pyrazolo[1,5-a][1,3,5]triazin-4-amine]
> 1500 | CC(C)c1cnn2c(NC3CCc4[nH]c5ccccc5c4C3)nc(N(C)C)nc12 (stereo not shown) [I-250]
> 1500 | CN1CCN(C(=O)c2cnn3c(NC4CCc5[nH]c6ccccc6c5C4)nc(-c4cncc(F)c4)nc23)CC1 (stereo not shown) [I-251]
< 500 | Fc1cncc(-c2nc(N[C@H]3CCc4[nH]ccc4C3)c3ncccc3n2)c1 [I-252a, 2-(5-Fluoro-3-pyridyl)-N-[(5S)-4,5,6,7-tetrahydro-1H-indol-5-yl]pyrido[3,2-d]pyrimidin-4-amine]
< 500 | Fc1cncc(-c2nc(N[C@@H]3CCc4[nH]ccc4C3)c3ncccc3n2)c1 [I-252b, 2-(5-Fluoro-3-pyridyl)-N-[(5R)-4,5,6,7-tetrahydro-1H-indol-5-yl]pyrido[3,2-d]pyrimidin-4-amine]
< 500 | Fc1cncc(-c2nc(N[C@@H]3CCc4[nH]c5ccccc5c4C3)n3ncc(-c4ccn[nH]4)c3n2)c1 [I-253, (3R)—N-[2-(5-Fluoro-3-pyridyl)-8-(1H-pyrazol-5-yl)pyrazolo[1,5-a][1,3,5]triazin-4-yl]-2,3,4,9-tetrahydro-1H-carbazol-3-amine]
> 1500 | CC(C)c1cnn2c(N[C@@H]3CCc4[nH]c5ccccc5c4C3)nc(N3CCOCC3)nc12 [I-254, (3R)—N-(8-Isopropyl-2-morpholino-pyrazolo[1,5-a][1,3,5]triazin-4-yl)-2,3,4,9-tetrahydro-1H-carbazol-3-amine]
< 500 | CC(C)c1cnn2c(N[C@@H]3CCc4[nH]c5ccccc5c4C3)nc(-c3cccnc3)nc12 [I-255, (3R)—N-[8-Isopropyl-2-(3-pyridyl)pyrazolo[1,5-a][1,3,5]triazin-4-yl]-2,3,4,9-tetrahydro-1H-carbazol-3-amine]
< 500 | Fc1cncc(-c2nc(N[C@@H]3CCc4[nH]c5ccccc5c4C3)c3nccn3n2)c1 [I-256, (3R)—N-[2-(5-fluoro-3-pyridyl)imidazo[2,1-f][1,2,4]triazin-4-yl]-2,3,4,9-tetrahydro-1H-carbazol-3-amine]
< 500 | Fc1cncc(-c2nc(NCCc3c[nH]c4ccccc34)c3ncccc3n2)c1 [I-257, 2-(5-Fluoro-3-pyridyl)-N-[2-(1H-indol-3-yl)ethyl]pyrido[3,2-d]pyrimidin-4-amine]
